In patent US20170129864A1, “NEW SIGMA-RECEPTORS LIGANDS WITH ANTI-APOPTOTIC AND/OR PRO-APOPTOTIC PROPERTIES, OVER CELLULAR BIOCHEMICAL MECHANISMS WITH NEUROPROTECTIVE, ANTI-CANCER, ANTI-METASTATIC AND ANTI-(CHRONIC) INFLAMMATORY ACTION” (Anavex Life Sciences Corp., priority 2007, published 2017):

Tests used:
[1] = test system: anoxia that is caused by pentylenetetrazole (PTZ); experiment: protection against pentylenetetrazole (PTZ) induced anoxia and tonic crises; type: in vivo, mice
σ-1 receptors = σ-1 receptors (Homo sapiens, UniProt Q99720); experiment: agonistic or antagonistic action on σ-1 receptors
Chain of σ-1 receptors (Q99720 whole entry): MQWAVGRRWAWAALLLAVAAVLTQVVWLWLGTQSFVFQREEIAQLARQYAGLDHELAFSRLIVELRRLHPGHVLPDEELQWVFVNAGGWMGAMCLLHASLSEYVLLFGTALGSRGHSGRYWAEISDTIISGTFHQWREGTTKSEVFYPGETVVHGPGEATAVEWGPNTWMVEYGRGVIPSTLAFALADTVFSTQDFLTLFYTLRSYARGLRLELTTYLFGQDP

σ-2 receptors [2] = biological target: T1, σ-2 receptors (Homo sapiens, UniProt Q5BJF2); experiment: affinity for σ-2 receptors; type: binding
T1 sequence (Q5BJF2 whole entry): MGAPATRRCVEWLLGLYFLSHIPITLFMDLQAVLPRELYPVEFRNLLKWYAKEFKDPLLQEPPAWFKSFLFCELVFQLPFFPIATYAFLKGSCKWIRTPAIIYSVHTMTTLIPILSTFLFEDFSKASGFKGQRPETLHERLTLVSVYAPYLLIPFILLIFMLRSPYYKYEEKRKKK

σ-2 receptors [3] = biological target: T1, σ-2 receptors; experiment: agonistic action for σ-2
[4] = test system: scopolamine and dizocilpine (MK-801) induced amnesia or amyloid peptide β25-35 (Aβ25-35); experiment: anti-amnesic action against scopolamine, dizocilpine (MK-801) or Aβ25-35 induced amnesia; type: in vivo; conditions: per os (po), in mice
cancer cells = experiment: cytotoxic action on cancer cells via apoptosis; type: cell-based; conditions: depending on the cell line used
mice = experiment: forced swimming test; type: in vivo; design: dose or concentration left out as unconfirmed; conditions: forced swimming test in mice
[5] = test system: Aβ25-35 induced neutotoxicity and oxidative stress; experiment: Aβ25-35 induced neurotoxicity and oxidative stress; type: in vivo; conditions: 0.03-1 mg/kg, i.p

## CNCC1CCOC1(c1ccccc1)c1ccccc1 (stereo not drawn) [AE37 Met, tetrahydro-N-methyl-2,2-diphenyl-3-furanomethanamine]
[1]; in mice
  protection against anoxia caused by pentylenetetrazole (PTZ): exceptional protection
[1]; mainly neuroprotective action
  activity relative to AE37 for the properties mentioned: slightly more active than AE37

## CN(C)CC1COC2(C1)C1CC3CC(C1)CC2C3 (stereo not drawn) [AdAE, (DIHYDRO-4-(DIMETHYLAMINOMETHYL)SPIRO{FURANE-2(3H), 2′TRICYCLO[3.3.1.13,7]DECANE}]
σ-1 receptors
  action on σ-1 receptors: weak agonists

## CN(C)CC1COC(c2ccccc2)(C23CC4CC(CC(C4)C2)C3)C1 (stereo not drawn) [AdPhAE, 5-(TRICYCLO[3.3.1.13,7]DEC-1-YL)-TETRAHYDRO-N,N-DIMETHYL-5-PHENYL-3-FURANEMETHANAMINE-]
σ-1 receptors
  action on σ-1 receptors: weak agonists

## CN(C)CC1COC(c2ccccc2)(c2ccccc2)C1 (stereo not drawn) [AE14, Tetrahydro-N,N,-dimethyl-5,5-diphenyl-3-furanomethanamine]
σ-2 receptors [2]
  Ki: > 10 µM
σ-2 receptors [2]; σ-2 versus σ-1
  affinity for σ-2 receptors, times lower than for σ-1: more than 100 times
σ-2 receptors [3]
  concentration at which agonistic action for σ-2 is shown: over 10 μM
[4]
  anti-amnesic action, active doses from: ≥ 0.03 mg/kg
Cancer cells
  concentration at which cytotoxic action on cancer cells is shown: over 200 μM
mice
  anti-immobility action: very strong anti-immobility action

## CN(C)CC1CCOC1(c1ccccc1)c1ccccc1 (stereo not drawn) [AE37, tetrahydro-N,N-dimethyl-2,2-diphenyl-3-furanomethanamine]
[5]
  activity against Aβ25-35 induced neurotoxicity and oxidative stress: very performant
σ-2 receptors [2]
  affinity for σ-2 receptors: no affinity
